Laboratory results: ChEMBL document CHEMBL4376804, “Review of Transient Receptor Potential Canonical (TRPC5) Channel Modulators and Diseases” (J Med Chem, 2019)

Columns and labels:
[1] = target: TRPC6; assay: Agonist activity at TRPC6 expressed in HEK293 cells coexpressing M5 receptor assessed as induction of TRPC6-mediated calcium influx by fluorescence method
[2] = target: ORAI1/STIM1 (Rattus norvegicus, UniProt P84903+Q5M848); assay: Inhibition of ORAI/STIM1 in thapsigargin treated rat RBL2H3 cells assessed as reduction in store-operated calcium entry after 5 mins by fura-2-AM dye based assay; format: cell-based
ORAI1/STIM1, sequence (P84903 whole entry): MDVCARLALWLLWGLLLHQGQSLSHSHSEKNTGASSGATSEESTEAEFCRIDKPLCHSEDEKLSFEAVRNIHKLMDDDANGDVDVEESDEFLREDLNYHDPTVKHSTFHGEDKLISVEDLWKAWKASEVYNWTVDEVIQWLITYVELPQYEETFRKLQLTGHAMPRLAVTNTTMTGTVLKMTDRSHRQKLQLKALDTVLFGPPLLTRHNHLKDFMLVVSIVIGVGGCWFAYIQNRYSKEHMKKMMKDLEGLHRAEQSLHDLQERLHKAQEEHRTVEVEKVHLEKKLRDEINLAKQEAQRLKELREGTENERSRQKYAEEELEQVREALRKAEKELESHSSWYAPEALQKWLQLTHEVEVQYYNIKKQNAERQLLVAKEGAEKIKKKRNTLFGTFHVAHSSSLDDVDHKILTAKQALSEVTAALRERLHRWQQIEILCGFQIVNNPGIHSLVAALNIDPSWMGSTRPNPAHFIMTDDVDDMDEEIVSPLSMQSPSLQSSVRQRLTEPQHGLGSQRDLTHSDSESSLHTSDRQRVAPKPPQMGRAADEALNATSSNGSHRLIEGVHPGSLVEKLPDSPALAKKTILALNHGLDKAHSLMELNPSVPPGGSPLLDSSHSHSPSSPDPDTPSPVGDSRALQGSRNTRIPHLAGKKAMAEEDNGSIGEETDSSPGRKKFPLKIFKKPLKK
ORAI1/STIM1, sequence (Q5M848 whole entry): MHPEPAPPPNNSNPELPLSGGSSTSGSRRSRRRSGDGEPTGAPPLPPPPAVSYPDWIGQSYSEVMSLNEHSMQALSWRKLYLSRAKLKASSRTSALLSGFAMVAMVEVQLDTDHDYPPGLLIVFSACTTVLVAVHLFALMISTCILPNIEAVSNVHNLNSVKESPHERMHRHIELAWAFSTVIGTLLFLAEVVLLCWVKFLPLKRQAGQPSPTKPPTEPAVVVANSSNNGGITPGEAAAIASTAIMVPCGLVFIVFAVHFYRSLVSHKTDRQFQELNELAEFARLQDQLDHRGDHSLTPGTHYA

[3] = target: T1, Short transient receptor potential channel 5 (Homo sapiens, UniProt Q9UL62); assay: Inhibition of TRPC5 (unknown origin)
T1 sequence (Q9UL62 whole entry): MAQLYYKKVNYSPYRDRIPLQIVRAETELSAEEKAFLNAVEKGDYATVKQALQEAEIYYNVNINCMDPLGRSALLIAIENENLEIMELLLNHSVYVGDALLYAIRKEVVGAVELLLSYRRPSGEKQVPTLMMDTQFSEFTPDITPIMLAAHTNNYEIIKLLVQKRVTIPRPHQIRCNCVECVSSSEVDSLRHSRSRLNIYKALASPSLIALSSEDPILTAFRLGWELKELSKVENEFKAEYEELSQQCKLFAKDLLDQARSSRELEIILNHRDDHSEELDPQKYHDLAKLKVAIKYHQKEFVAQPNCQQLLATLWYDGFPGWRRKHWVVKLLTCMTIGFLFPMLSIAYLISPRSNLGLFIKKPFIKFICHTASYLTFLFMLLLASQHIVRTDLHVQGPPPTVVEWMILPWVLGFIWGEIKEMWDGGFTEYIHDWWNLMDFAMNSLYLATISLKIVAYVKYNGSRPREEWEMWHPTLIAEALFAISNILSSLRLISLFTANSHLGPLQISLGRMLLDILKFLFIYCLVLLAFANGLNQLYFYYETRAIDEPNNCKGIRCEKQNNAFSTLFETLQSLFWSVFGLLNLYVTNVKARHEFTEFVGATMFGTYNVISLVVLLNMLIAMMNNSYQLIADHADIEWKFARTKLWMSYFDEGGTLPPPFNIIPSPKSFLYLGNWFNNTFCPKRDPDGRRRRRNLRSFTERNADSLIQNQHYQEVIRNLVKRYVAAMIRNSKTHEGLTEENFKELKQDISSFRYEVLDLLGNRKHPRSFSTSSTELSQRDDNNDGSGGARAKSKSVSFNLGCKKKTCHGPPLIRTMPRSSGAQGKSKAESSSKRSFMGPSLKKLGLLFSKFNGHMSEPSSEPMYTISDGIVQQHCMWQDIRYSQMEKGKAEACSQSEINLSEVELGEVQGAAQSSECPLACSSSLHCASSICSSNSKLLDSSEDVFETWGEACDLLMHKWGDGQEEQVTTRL

[4] = target: T2, Short transient receptor potential channel 3 (Homo sapiens, UniProt Q13507); assay: Inhibition of YFP-tagged TRPC3 (unknown origin) expressed in HEK293 cells assessed as reduction carbhocol-induced receptor operated Calcium influx after 5 mins by fura-2-AM dye based assay; format: cell-based
T2 sequence (Q13507 whole entry): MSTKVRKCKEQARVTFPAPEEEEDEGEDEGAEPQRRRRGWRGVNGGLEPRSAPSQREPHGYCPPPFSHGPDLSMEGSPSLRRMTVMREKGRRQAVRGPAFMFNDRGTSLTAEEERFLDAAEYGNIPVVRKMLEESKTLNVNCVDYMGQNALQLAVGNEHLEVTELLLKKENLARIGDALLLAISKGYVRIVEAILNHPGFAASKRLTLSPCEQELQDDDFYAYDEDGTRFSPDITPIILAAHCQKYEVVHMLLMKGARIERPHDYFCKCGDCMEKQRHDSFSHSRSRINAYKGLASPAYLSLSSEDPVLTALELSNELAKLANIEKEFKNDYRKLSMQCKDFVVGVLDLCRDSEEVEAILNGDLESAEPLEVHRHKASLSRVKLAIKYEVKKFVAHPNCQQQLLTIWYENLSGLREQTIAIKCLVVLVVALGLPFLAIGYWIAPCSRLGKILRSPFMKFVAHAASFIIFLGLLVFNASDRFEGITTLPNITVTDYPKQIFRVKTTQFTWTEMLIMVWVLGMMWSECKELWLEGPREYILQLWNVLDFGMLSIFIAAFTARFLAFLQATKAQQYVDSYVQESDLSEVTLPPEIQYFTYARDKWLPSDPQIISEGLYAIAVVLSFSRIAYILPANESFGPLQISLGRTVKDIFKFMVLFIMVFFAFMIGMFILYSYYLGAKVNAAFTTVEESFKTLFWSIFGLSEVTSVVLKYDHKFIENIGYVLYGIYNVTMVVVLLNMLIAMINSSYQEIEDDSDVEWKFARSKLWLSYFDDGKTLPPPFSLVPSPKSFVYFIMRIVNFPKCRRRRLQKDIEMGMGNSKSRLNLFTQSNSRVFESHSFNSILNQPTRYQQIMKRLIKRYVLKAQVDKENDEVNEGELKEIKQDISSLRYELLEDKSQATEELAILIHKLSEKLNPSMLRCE

[5] = Drug concentration in C57BL/6 mouse plasma at 1 mg/kg, iv after 2 hrs by liquid chromatography-tandem mass spectrometry; format: ADME, organism-based; conditions: in vivo
[6] = Protein binding in C57BL/6 mouse plasma assessed as unbound fraction by liquid chromatography-tandem mass spectrometry; format: ADME, cell-free
[7] = Drug concentration in C57BL/6 mouse brain at 1 mg/kg, iv after 2 hrs by liquid chromatography-tandem mass spectrometry; format: ADME, organism-based; conditions: read-out: Drug uptake
[8] = target: T2, Short transient receptor potential channel 3; assay: Inhibition of TRPC3 (unknown origin)
[9] = Inhibition of ORAI (unknown origin) assessed as reduction in Ang2-induced NFAT translocation; set-up: species or system Homo sapiens
[10] = target: T3, Short transient receptor potential channel 4 (Homo sapiens, UniProt Q9UBN4); assay: Inhibition of human TRPC4 expressed in HEK293 cells assessed as reduction in sphingosine-1-phosphate-induced current at +100 mV by patch clamp assay; format: cell-based
T3 sequence (Q9UBN4 whole entry): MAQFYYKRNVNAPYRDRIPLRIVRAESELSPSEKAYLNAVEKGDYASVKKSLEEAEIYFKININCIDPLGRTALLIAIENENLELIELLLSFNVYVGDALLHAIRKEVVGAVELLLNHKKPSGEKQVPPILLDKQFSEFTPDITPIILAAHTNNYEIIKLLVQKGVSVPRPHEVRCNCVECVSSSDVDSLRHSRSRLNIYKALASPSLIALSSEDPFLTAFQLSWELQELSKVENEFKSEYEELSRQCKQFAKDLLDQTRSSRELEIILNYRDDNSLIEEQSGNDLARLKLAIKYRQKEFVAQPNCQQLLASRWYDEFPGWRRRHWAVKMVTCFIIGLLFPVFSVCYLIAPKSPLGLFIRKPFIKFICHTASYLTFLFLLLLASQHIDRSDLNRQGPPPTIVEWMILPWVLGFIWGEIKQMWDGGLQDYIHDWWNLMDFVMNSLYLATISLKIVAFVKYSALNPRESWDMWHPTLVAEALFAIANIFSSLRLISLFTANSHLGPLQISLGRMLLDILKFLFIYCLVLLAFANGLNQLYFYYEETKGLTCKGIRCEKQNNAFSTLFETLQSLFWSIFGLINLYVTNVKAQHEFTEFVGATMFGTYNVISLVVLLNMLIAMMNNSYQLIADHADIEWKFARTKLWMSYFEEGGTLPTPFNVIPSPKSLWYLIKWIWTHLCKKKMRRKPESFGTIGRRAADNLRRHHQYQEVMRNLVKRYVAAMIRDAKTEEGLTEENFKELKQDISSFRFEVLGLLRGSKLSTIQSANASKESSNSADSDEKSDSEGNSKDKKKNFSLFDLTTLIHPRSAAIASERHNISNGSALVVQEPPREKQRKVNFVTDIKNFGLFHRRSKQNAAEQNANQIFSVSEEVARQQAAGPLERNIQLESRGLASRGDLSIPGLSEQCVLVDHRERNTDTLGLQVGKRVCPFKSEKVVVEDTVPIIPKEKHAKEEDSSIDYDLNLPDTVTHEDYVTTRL

[11] = target: T3, Short transient receptor potential channel 4; assay: Inhibition of human TRPC4 expressed in HEK293 cells assessed as reduction in sphingosine-1-phosphate-induced current at -100 mV by patch clamp assay; format: cell-based
[12] = target: TRPC4/TRPC1 (Homo sapiens, UniProt P48995+Q9UBN4); assay: Inhibition of human TRPC4/human TRPC1 expressed in HEK293 cells assessed as reduction in englerin A-induced calcium entry incubated for 30 mins by Fluo-4AM dye based fluorescence assay; format: cell-based
TRPC4/TRPC1, sequence (P48995 whole entry, one chain of several): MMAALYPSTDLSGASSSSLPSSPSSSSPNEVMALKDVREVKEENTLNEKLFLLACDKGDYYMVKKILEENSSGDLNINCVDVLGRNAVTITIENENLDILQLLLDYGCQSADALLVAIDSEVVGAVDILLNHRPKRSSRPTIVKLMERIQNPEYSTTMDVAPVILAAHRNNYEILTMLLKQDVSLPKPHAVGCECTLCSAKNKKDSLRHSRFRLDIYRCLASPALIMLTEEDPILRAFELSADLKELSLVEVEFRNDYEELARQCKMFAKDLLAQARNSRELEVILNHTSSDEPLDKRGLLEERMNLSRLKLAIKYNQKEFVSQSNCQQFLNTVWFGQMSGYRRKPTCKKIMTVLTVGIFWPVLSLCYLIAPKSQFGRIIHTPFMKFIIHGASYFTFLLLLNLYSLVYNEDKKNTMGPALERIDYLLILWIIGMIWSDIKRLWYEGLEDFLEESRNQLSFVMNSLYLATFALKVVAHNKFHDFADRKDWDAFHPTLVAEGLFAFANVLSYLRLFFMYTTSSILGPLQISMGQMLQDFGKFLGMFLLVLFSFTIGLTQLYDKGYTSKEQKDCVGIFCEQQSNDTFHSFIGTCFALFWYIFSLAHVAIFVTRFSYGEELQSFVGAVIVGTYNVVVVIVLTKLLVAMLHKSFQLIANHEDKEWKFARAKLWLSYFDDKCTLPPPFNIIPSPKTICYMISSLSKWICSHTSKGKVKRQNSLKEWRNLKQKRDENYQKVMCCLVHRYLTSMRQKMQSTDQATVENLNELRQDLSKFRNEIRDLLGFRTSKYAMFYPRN

[13] = target: TRPC1/TRPC5 (Homo sapiens, UniProt P48995+Q9UL62); assay: Inhibition of human TRPC5/human TRPC1 expressed in HEK293 cells assessed as reduction in englerin A-induced calcium entry incubated for 30 mins by Fluo-4AM dye based fluorescence assay; format: cell-based
TRPC1/TRPC5, sequence (P48995 whole entry, one chain of several): as above

[14] = target: T3, Short transient receptor potential channel 4; assay: Inhibition of human TRPC4 expressed in HEK293 cells assessed as reduction in englerin A-induced calcium entry incubated for 30 mins by Fluo-4AM dye based fluorescence assay; format: cell-based
[15] = target: T4, Short transient receptor potential channel 6 (Homo sapiens, UniProt Q9Y210); assay: Inhibition of human TRPC6 expressed in thapsigargin pretreated HEK293 cells assessed as reduction in GPCR-induced calcium entry by fluo-4/AM dye based assay; format: cell-based
T4 sequence (Q9Y210 whole entry): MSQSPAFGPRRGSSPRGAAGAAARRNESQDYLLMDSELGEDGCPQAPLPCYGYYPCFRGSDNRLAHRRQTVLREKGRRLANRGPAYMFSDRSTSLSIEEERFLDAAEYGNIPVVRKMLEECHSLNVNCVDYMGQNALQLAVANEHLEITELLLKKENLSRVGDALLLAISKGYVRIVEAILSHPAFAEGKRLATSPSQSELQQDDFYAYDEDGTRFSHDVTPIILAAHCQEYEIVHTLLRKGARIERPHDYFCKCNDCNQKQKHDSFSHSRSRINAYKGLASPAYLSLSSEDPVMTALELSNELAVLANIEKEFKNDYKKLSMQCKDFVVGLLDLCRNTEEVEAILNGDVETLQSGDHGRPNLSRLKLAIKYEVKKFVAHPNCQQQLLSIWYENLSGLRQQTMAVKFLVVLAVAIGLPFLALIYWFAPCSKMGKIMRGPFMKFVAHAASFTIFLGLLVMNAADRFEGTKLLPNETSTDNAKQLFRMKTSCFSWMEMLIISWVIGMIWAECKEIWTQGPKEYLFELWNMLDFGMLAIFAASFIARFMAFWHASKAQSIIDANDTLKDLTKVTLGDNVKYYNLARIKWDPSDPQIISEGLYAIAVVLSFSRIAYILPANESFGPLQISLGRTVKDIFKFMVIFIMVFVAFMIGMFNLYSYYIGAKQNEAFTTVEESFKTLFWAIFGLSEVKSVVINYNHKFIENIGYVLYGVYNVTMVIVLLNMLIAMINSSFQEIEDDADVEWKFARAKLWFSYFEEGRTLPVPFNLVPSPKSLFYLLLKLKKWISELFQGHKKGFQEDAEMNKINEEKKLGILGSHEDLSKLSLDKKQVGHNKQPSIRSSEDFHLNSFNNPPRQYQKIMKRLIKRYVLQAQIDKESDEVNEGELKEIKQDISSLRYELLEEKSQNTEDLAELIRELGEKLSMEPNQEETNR

[16] = system: AGS; assay: Antitumor activity against human AGS cells xenografted in BALB/c mouse assessed as reduction in tumor growth at 100 mg/kg, ip BID administered for 2 consecutive weeks and measured every 3 days during compound dosing relative to control; format: functional; conditions: 72 h, read-out: TGI
[17] = system: AGS; assay: Antitumor activity against human AGS cells xenografted in BALB/c mouse assessed as reduction in tumor growth at 200 mg/kg, ip BID administered for 2 consecutive weeks and measured every 3 days during compound dosing relative to control; format: functional; conditions: 72 h, read-out: TGI
[18] = system: MKN-45; assay: Antiproliferative activity against human MKN45 cells by MTT assay; format: functional, cell-based
[19] = system: AGS; assay: Antiproliferative activity against human AGS cells by MTT assay; format: functional, cell-based
[20] = target: TRPC6; assay: Inhibition of TRPC6 expressed in HEK293 cells coexpressing M5 receptor assessed as reduction in TRPC6-mediated calcium influx by fluorescence method

## CCOC(=O)N1CCC(c2cc(O)n3nc(C)c(-c4ccc(F)cc4)c3n2)CC1
[1]
  EC50: 4.7 µM

## Cc1nnsc1C(=O)Nc1ccc(-n2nc(C(F)(F)F)cc2C(F)(F)F)cc1
[2]
  IC50: 590 nM
[3]
  IC50: 300 nM
[4]
  IC50: 4210 nM

## Cn1c(=O)n(CCCO)c(=O)c2c1nc(Oc1cccc(Cl)c1)n2Cc1ccc(Cl)cc1
[5]
  Cp: 299 nmol/kg
[6]
  Fu: 0.4%
[7]
  concentration at 2 h: 339 nM

## CCOC(=O)c1cnn(-c2ccc(NC(=O)C(Cl)=C(Cl)Cl)cc2)c1C(F)(F)F
[2]
  IC50: 540 nM
[8]
  IC50: 700 nM
[4]
  IC50: 540 nM
[9]
  IC50: 50 nM

## Cn1c(=O)n(CCCO)c(=O)c2c1nc(Oc1cccc(OC(F)(F)F)c1)n2Cc1ccc(Cl)cc1 [ZERENCOTREP]
[10]
  IC50: 0.03 nM
[11]
  IC50: 0.012 nM
[12]
  IC50: 0.033 nM
[13]
  IC50: 0.19 nM
[14]
  IC50: 0.34 nM

## C=C[C@](C)(O)CC[C@H]1C(=C)C[C@H](O)[C@H]2C(C)(C)CCC[C@]12C
[15]
  IC50: 1570 nM

## CCOC(=O)N1CCC(C)(c2cc(O)n3nc(C)c(-c4ccc(C(F)(F)F)cc4)c3n2)CC1
[16]
  inhibition in vivo at 100 mg/kg: 38.5%
[17]
  inhibition in vivo at 200 mg/kg: 61.5%
[18]
  IC50: 18.5 µM
[19]
  IC50: 17.1 µM
[20]
  IC50: 1000 nM
